# Measured values taken from patent US20040076601A1, “Pharmaceutical form comprising a cell regulating factor and/or a cell proliferation promoter” (priority 2000, published 2004).
# Experiments:
# BP-A31 fibroblasts = experiment: MTT proliferation assay of form containing SPC (Example 7); type: cell-based, mouse; settings: BP-A31 fibroblasts over 24 h vs untreated control; 3.1% added to the well, final theoretical SPC concentration 15 μM
# Procedure: SPC was formulated in a support material containing 60% by weight of methylidene malonate oligomer and 40% by weight of methylidene malonate polymer prepared from 1-ethoxycarbonyl-1-ethoxycarbonylmethyleneoxycarbonylethene monomer (100 μg of SPC formulated per 40 mg of material, as described in Example 2). The pharmaceutical form according to the invention, containing SPC or its control solvent, was then brought into contact with BP-A31 fibroblasts according to the protocol described in Example 1. The effect of adding 3.1% to the well, generating a final theoretical SPC concentration of 15 μM, is shown here. The stimulation of cell proliferation was quantified by the MTT assay. The results, expressed as the percentage proliferation of the cells over 24 h compared with an untreated control culture, are reported in Table 6 below.
# BP-A31 cells = experiment: Stability of the biological activity of FGF-2 after storage at 4° C., MTT assay (Example 4); type: cell-based, mouse; settings: MTT assay 24 h, FIG. 1
# Procedure: The materials used are on the one hand the three pharmaceutical forms of Example 3, in which the support material consists of different proportions by weight of methylidene malonate oligomers and polymers, and on the other hand free (non-formulated) FGF-2. After storage of the 3 pharmaceutical forms and the free FGF-2 for 7, 14 and 21 days at 4° C., the stimulating activity on cell proliferation is measured by the MTT assay described in Example 2 for 24 h compared with a control culture with no growth factor added.
# The results are shown graphically in FIG. 1, in which the storage time at 4° C., expressed in days, is plotted on the abscissa and the percentage proliferation is plotted on the ordinate.
Compound,Proliferation (%) (BP-A31 fibroblasts),stability of biological activity on storage (BP-A31 cells)
"CCCCCCCCCCCCC/C=C/[C@@H](O)[C@@H](N)COP(=O)([O-])OCC[N+](C)(C)C [Free SPC, sphingosylphosphorylcholine]",158.8 ± 3.2,
"free (non-formulated) FGF-2: free (non-formulated) basic fibroblast growth factor, human recombinant FGF-2",,rapidly losing its biological activity (after 7 days)
